Biological target: T1, human NK3 receptor (Homo sapiens, UniProt P29371)
T1 construct: expressed in transfected cells; host or cells: HEK293 cells (transient expression), membrane preparation
T1 sequence (P29371 1-465): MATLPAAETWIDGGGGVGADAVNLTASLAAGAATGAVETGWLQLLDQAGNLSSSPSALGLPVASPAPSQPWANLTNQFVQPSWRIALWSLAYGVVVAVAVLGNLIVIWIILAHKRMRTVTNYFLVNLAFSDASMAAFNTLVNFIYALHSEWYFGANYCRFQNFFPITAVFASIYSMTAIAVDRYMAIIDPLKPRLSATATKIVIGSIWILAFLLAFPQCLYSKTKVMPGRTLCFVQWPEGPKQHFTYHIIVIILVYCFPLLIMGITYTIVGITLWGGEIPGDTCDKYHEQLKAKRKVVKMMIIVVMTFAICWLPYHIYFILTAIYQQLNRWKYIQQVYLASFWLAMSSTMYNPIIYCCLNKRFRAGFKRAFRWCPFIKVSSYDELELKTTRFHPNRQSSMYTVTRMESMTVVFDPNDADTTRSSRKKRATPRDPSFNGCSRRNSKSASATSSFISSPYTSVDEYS
Test: [3H]SR142801 competition binding assay
Details: hNK3 receptor binding, [3H]SR142801, membranes from HEK293 cells transiently expressing recombinant human NK3 receptor
Method: [^3H]SR142801 Competition Binding Assay
hNK3 receptor binding experiment were performed using [^3H]SR142801 (Catalog No. TRK1035, specific activity: 74.0 Ci/mmol, Amersham, GE Healthcare UK limited, Buckinghamshire, UK) and membrane isolated from HEK293 cells transiently expressing recombinant human NK3 receptor. After thawing, the membrane homogenates were centrifuged at 48,000×g for 10 min at 4° C., the pellets were resuspended in the 50 mM Tris-HCl, 4 mM MnCl2, 1 μM phosphoramidon, 0.1% BSA binding buffer at pH 7.4 to a final assay concentration of 5 μg protein/well. For inhibition experiments, membranes were incubated with [^3H]SR142801 at a concentration equal to KD value of radioligand and 10 concentrations of the inhibitory compound (0.0003-10 μM) (in a total reaction volume of 500 μl) for 75 min at room temperature (RT). At the end of the incubation, membranes were filtered onto unitfilter (96-well white microplate with bonded GF/C filter preincubated 1 h in 0.3% PEI+0.3% BSA, Packard BioScience, Meriden, Conn.) with a Filtermate 196 harvester (Packard BioScience) and washed 4 times with ice-cold 50 mM Tris-HCl, pH 7.4 buffer. Nonspecific binding was measured in the presence of 10 μM SB222200 for both radioligands. The radioactivity on the filter was counted (5 min) on a Packard Top-count microplate scintillation counter with quenching correction after addition of 45 μl of microscint 40 (Canberra Packard S. A., Zürich, Switzerland) and shaking for 1 h. Inhibition curves were fitted according to the Hill equation: y=100/(1+(x/IC50)^nH), where nH=slope factor using Excel-fit 4 software (Microsoft). IC50 values were derived from the inhibition curve and the affinity constant (Ki) values were calculated using the Cheng-Prussoff equation Ki=IC50/(1+[L]/KD) where [L] is the concentration of radioligand and KD is its dissociation constant at the receptor, derived from the saturation isotherm. All experiments were performed in duplicate and the mean±standard error (SEM) of the individual Ki values was calculated.

| SMILES | Ki [nM] |
| --- | --- |
| CN(Cc1ccc(C(F)(F)F)c(F)c1)[C@H]1CN(C(=O)N2CCC(O)(c3ccncc3)CC2)C[C@@H]1c1ccc(Cl)c(Cl)c1 (racemic) [Example 80, {(3SR,4RS)-3-(3,4-Dichloro-phenyl)-4-[(3-fluoro-4-trifluoromethyl-benzyl)-methyl-amino]-pyrrolidin-1-yl}-(4-hydroxy-3,4,5,6-tetrahydro-2H-[4,4′]bipyridinyl-1-yl)-methanone] | 20.8 |
| CN(Cc1ccc(C(F)(F)F)c(F)c1)[C@H]1CN(C(=O)N2CCCN(S(C)(=O)=O)CC2)C[C@@H]1c1ccc(Cl)c(F)c1 (racemic) [Example 82, {(3SR,4RS)-3-(4-Chloro-3-fluoro-phenyl)-4-[(3-fluoro-4-trifluoromethyl-benzyl)-methyl-amino]-pyrrolidin-1-yl}-(4-methanesulfonyl-[1,4]diazepan-1-yl)-methanone] | 39.7 |
| CN(Cc1ccc(C(F)(F)F)cc1)[C@H]1CN(C(=O)N2CCN(S(C)(=O)=O)CC2)C[C@@H]1c1ccc(Cl)c(Cl)c1 (racemic) [Example 83, {(3SR,4RS)-3-(3,4-Dichloro-phenyl)-4-[methyl-(4-trifluoromethyl-benzyl)-amino]-pyrrolidin-1-yl}-(4-methanesulfonyl-piperazin-1-yl)-methanone] | 6 |
| CN(Cc1ccc(C(F)(F)F)cc1)[C@H]1CN(C(=O)CCCCN2CCOCC2)C[C@@H]1c1ccc(Cl)c(Cl)c1 (racemic) [Example 84, 1-{(3SR,4RS)-3-(3,4-Dichloro-phenyl)-4-[methyl-(4-trifluoromethyl-benzyl)-amino]-pyrrolidin-1-yl}-5-morpholin-4-yl-pentan-1-one] | 15.5 |
| CNCCCCC(=O)N1C[C@H](c2ccc(Cl)c(Cl)c2)[C@@H](N(C)Cc2ccc(C(F)(F)F)c(F)c2)C1 (racemic) [Example 86, 1-{(3SR,4RS)-3-(3,4-Dichloro-phenyl)-4-[(3-fluoro-4-trifluoromethyl-benzyl)-methyl-amino]pyrrolidin-1-yl}-5-methylamino-pentan-1-one] | 97.6 |
| CN(C)CCCCC(=O)N1C[C@H](c2ccc(Cl)c(Cl)c2)[C@@H](N(C)Cc2ccc(C(F)(F)F)c(F)c2)C1 (racemic) [Example 87, 1-{(3SR,4RS)-3-(3,4-Dichloro-phenyl)-4-[(3-fluoro-4-trifluoromethyl-benzyl)-methyl-amino]-pyrrolidin-1-yl}-5-dimethylamino-pentan-1-one] | 51.2 |
| CN(Cc1ccc(C(F)(F)F)c(F)c1)[C@H]1CN(C(=O)CCCCN2CCN(S(=O)(=O)N(C)C)CC2)C[C@@H]1c1ccc(Cl)c(Cl)c1 (racemic) [Example 90, 4-(5-{(3SR,4RS)-3-(3,4-Dichloro-phenyl)-4-[(3-fluoro-4-trifluoromethyl-benzyl)-methyl-amino]-pyrrolidin-1-yl}-5-oxo-pentyl)-piperazine-1-sulfonic acid dimethylamide] | 8.6 |
| CN(Cc1ccc(C(F)(F)F)c(F)c1)[C@H]1CN(C(=O)CCCCn2ccnc2)C[C@@H]1c1ccc(Cl)c(Cl)c1 (racemic) [Example 91, 1-{(3SR,4RS)-3-(3,4-Dichloro-phenyl)-4-[(3-fluoro-4-trifluoromethyl-benzyl)-methyl-amino]-pyrrolidin-1-yl}-5-imidazol-1-yl-pentan-1-one] | 57.2 |
| CN(Cc1ccc(C(F)(F)F)c(F)c1)[C@H]1CN(C(=O)CCCCC(=O)c2ccccn2)C[C@@H]1c1ccc(Cl)c(Cl)c1 (racemic) [Example 95, 1-{(3SR,4RS)-3-(3,4-Dichloro-phenyl)-4-[(3-fluoro-4-trifluoromethyl-benzyl)-methyl-amino]-pyrrolidin-1-yl}-6-pyridin-2-yl-hexane-1,6-dione] | 24.3 |
| CN(Cc1ccc(C(F)(F)F)c(F)c1)[C@H]1CN(C(=O)CCCCC(N)=O)C[C@@H]1c1ccc(Cl)c(Cl)c1 (racemic) [Example 98, 6-{(3SR,4RS)-3-(3,4-Dichloro-phenyl)-4-[(3-fluoro-4-trifluoromethyl-benzyl)-methyl-amino]-pyrrolidin-1-yl}-6-oxo-hexanoic acid amide] | 52.7 |

Second part, the compound after the results:

| Ki [nM] | SMILES |
| --- | --- |
| 4.6 | CN(C)CCN1CCN(C(=O)N2C[C@H](c3ccc(Cl)c(Cl)c3)[C@@H](N(C)Cc3ccc(C(F)(F)F)c(F)c3)C2)CC1 (racemic) [Example 75, {(3SR,4RS)-3-(3,4-Dichloro-phenyl)-4-[(3-fluoro-4-trifluoromethyl-benzyl)-methyl-amino]-pyrrolidin-1-yl}-[4-(2-dimethylamino-ethyl)-piperazin-1-yl]-methanone] |
| 1.8 | CN(Cc1ccc(C(F)(F)F)c(F)c1)[C@H]1CN(C(=O)N2CCN(S(=O)(=O)N(C)C)CC2)C[C@@H]1c1ccc(Cl)c(Cl)c1 (racemic) [Example 76, 4-{(3SR,4RS)-3-(3,4-Dichloro-phenyl)-4-[(3-fluoro-4-trifluoromethyl-benzyl)-methyl-amino]-pyrrolidine-1-carbonyl}-piperazine-1-sulfonic acid dimethylamide] |
| 26.8 | COc1cccc(N2CCN(C(=O)N3C[C@H](c4ccc(Cl)c(Cl)c4)[C@@H](N(C)Cc4ccc(C(F)(F)F)c(F)c4)C3)CC2)n1 (racemic) [Example 77, {(3SR,4RS)-3-(3,4-Dichloro-phenyl)-4-[(3-fluoro-4-trifluoromethyl-benzyl)-methyl-amino]-pyrrolidin-1-yl}-[4-(6-methoxy-pyridin-2-yl)-piperazin-1-yl]-methanone] |
| 4.8 | CCN(CC)C(=O)N1CCN(C(=O)N2C[C@H](c3ccc(Cl)c(Cl)c3)[C@@H](N(C)Cc3ccc(C(F)(F)F)c(F)c3)C2)CC1 (racemic) [Example 78, 4-{(3SR,4RS)-3-(3,4-Dichloro-phenyl)-4-[(3-fluoro-4-trifluoromethyl-benzyl)-methyl-amino]-pyrrolidine-1-carbonyl}-piperazine-1-carboxylic acid diethylamide] |
| 1.9 | CN(Cc1ccc(C(F)(F)F)c(F)c1)[C@H]1CN(C(=O)N2CCN(CCC#N)CC2)C[C@@H]1c1ccc(Cl)c(Cl)c1 (racemic) [Example 79, 3-(4-{(3SR,4RS)-3-(3,4-Dichloro-phenyl)-4-[(3-fluoro-4-trifluoromethyl-benzyl)-methyl-amino]-pyrrolidine-1-carbonyl}-piperazin-1-yl)-propionitrile] |
| 14.6 | CN(Cc1ccc(C(F)(F)F)c(F)c1)[C@H]1CN(C(=O)N2CCN(S(C)(=O)=O)CC2)C[C@@H]1c1ccc(Cl)c(F)c1 (racemic) [Example 81, {(3SR,4RS)-3-(4-Chloro-3-fluoro-phenyl)-4-[(3-fluoro-4-trifluoromethyl-benzyl)-methyl-amino]-pyrrolidin-1-yl}-(4-methanesulfonyl-piperazin-1-yl)-methanone] |
| 24.7 | CN(Cc1ccc(C(F)(F)F)c(F)c1)[C@H]1CN(C(=O)CCCCN2CCNCC2)C[C@@H]1c1ccc(Cl)c(Cl)c1 (racemic) [Example 88, 1-{(3SR,4RS)-3-(3,4-Dichloro-phenyl)-4-[(3-fluoro-4-trifluoromethyl-benzyl)-methyl-amino]-pyrrolidin-1-yl}-5-piperazin-1-yl-pentan-1-one] |
| 26.9 | CN1CCN(CCCCC(=O)N2C[C@H](c3ccc(Cl)c(Cl)c3)[C@@H](N(C)Cc3ccc(C(F)(F)F)c(F)c3)C2)CC1 (racemic) [Example 89, 1-{(3SR,4RS)-3-(3,4-Dichloro-phenyl)-4-[(3-fluoro-4-trifluoromethyl-benzyl)-methyl-amino]-pyrrolidin-1-yl}-5-(4-methyl-piperazin-1-yl)-pentan-1-one] |
| 46.6 | CN(Cc1ccc(C(F)(F)F)c(F)c1)[C@H]1CN(C(=O)CCCCN2CCCC2)C[C@@H]1c1ccc(Cl)c(Cl)c1 (racemic) [Example 92, 1-{(3SR,4RS)-3-(3,4-Dichloro-phenyl)-4-[(3-fluoro-4-trifluoromethyl-benzyl)-methyl-amino]-pyrrolidin-1-yl}-5-pyrrolidin-1-yl-pentan-1-one] |
| 70.8 | CN(Cc1ccc(C(F)(F)F)c(F)c1)[C@H]1CN(C(=O)CCCCC#N)C[C@@H]1c1ccc(Cl)c(Cl)c1 (racemic) [Example 102, 6-{(3SR,4RS)-3-(3,4-Dichloro-phenyl)-4-[(3-fluoro-4-trifluoromethyl-benzyl)-methyl-amino]-pyrrolidin-1-yl}-6-oxo-hexanenitrile] |

Reference: US8022099B2, “N-benzyl pyrrolidine derivatives” (Hoffmann-La Roche Inc., priority 2008, dated 2011)
